This is an account of results in patent publication US20020049313A1, “Method for introducing foreign material into higher eukaryotic cells” (priority 1994, published 2002).

“Also recorded” adds a separate entry of the source.

Test [1] relates to IL-6 promoter (NF-IL-6/NF-KB). The test can be described thus: IL-6 promoter luciferase reporter activation in A549 IL-6 cells. Conditions: A549/NF-IL-6 luciferase; 10 h; PMA 10^−8M, virus 10^4 Particle/cell. The format is cell-based, human. From the text:
The construct described by Matsusaka et al., 1993 was used, which contains the luciferase sequence driven by the IL-6 promoter.
(§1) In order to prepare the clonal cell lines, containing the reporter plasmid pNF-KB-Luc or pIL-6-Luc, the human lung cancer cell line A549 (ATCC CCL 185) was used as starting material. The plasmids were co-transfected with the neomycin-phosphotransferase-expression plasmid designated pmuatt (a pUC19 plasmid containing the TKneo-sequence; Grosveld et al., 1982) using the transfectam method (Behr et al., 1989) and selected for cells which are resistant to 400 μg/ml of G418 (Sigma). Clonal derivatives which expressed luciferase after induction by PMA were identified and expanded.
(§2) The luciferase activity was determined as described in WO 93/07283.
(§3) Stable clones of the lung epithelial carcinoma cell line A549 were produced, which contained pNF-KB-luc or pIL-6-luc as reporter gene construct. […]
In order to determine the time sequence of the NF-IL-6-and NF-KB-activation, the cells of the two cell lines which were found in the above quantities in a 24 well plate or 6 well plate were each treated with 10^4 adenovirus dl1014 virus particles per cell (which corresponded to 4×10^8 virus particles for each well of the A549 NF-KB cells or 4×10^9 virus particles for each well of the A549 IL-6 cells). […]
On the technique in general: In a reporter assay the amount or activity of a reporter protein is the signal.

The test system of test [2] is NF-KB. The test can be described thus: NF-KB luciferase reporter activation in A549 NF-KB cells. The format is cell-based, human. To be noted: 11 h, LPS 2.5 μg/ml, PMA 10^−8M.
Text: The plasmid pNF-KB-Luc responding to NF-KB was constructed as a derivative of the plasmid pTK3kbB described by Boehmelt et al., 1992. In order to do this, pTK3kbB was cut with XhoI and NcoI in order to remove the majority of the sequence coding for CAT, treated with Klenow enzyme and ligated with a Klenow-treated HindIII/SspI fragment of PRSVL, containing the luciferase sequence (De Wet et al., 1987). This yielded the plasmid p3K-Luc which contains a triple binding site for the transcription factor NF-KB plus the luciferase sequence, driven by a thymidine kinase (TK) TATA box.
as §1, §2, §3

The test system of test [3] is primary human fibroblasts. The test can be described thus: Luciferase gene expression after adenovirus-aided transferrinfection of primary human fibroblasts. The format is cell-based. To be noted: for improvement in gene expression: absence of E1B 19K, dexamethasone 10 μM, ibuprofen 100 μM, 5,8,11-eicosatriynoic acid 30 μM; for Induction (-fold) of luciferase expression: 3 μM dexamethasone, 24 hours after transfection. How it is done:
Samples of biotinylated, psoralen/UV-inactivated adenovirus dl1014 (8 μl, 1×10^12 particles/ml) were diluted in 150 μl of HBS and mixed with 1 μg of StpL in […] of HBS for 30 minutes at ambient temperature. Aliquots of 6 μg of plasmid DNA (in the case of mixtures of pCMVL-DNA and another plasmid the ratio was 5:1) were diluted in 100 μl of HBS and then mixed with the adenovirus/StpL solution for 30 minutes at ambient temperature. Finally, a 100 μl aliquot of HBS, containing 5 μg of TfpL, was added to each sample, followed by 30 minutes' incubation at ambient temperature.
After surgical removal, skin biopsies were added to 4° C. DMEM containing 10% heat-inactivated FCS, 2 mM glutamine and gentamycin. The biopsies were carefully cut up in a tissue culture device using forceps and a surgical blade in a laminar air current in sterile 6 cm plastic dishes. Then 3 ml of DMEM, containing 20% FCS, 2 mM glutamine and antibiotics were added and the culture was placed in an incubator at 37° C. After 10 days the medium was replaced by DMEM containing 10% FCS. Then the medium was changed a further 2 times a week. 4 weeks after the start of cultivation the cells which had grown out of the tissue fragments were trypsinised and plated out into new culture dishes for transfection.
as §2
First of all, a series of experiments were carried out intended to establish whether the expression of certain adenovirus genes is capable of intensifying gene expression after transferrinfection. A defined quantity of the luciferase expression plasmid pCMVL (5 μg) was mixed with various plasmid DNA (1 μg in each), incorporated in TfpL/StpL/adenovirus transfection complexes (total volume 500 μl) and applied to primary human fibroblasts (50 μl of complex were applied to 2×10^4 cells per well in a 24-well plate, corresponding to 2.5×10^4 virus particles per cell, the measurements being carried out three times. In FIG. 4 “minus” denotes pSP65; the test DNA is specified in each case). The luciferase activity obtained was measured 48 to 72 hours after transfection. […] The E1 region contains two main gene functions, E1A and E1B. (The E1A products have the effect of separating E2F from the Rb protein and on the other hand they modulate the transcription activity of numerous cellular and adenovirus promoters. The main transcription-transactivator function is contained in the 13S gene product. The 1B gene codes for two main functions: the E1B 55K gene product binds p53 and changes its function. It is assumed that the 19K E1B gene product acts underneath p53 in order to block the apoptotic response).
In order to do this, transfection complexes containing pCMVL plus the plasmid pSP65, or the plasmids which contained the sequence for Bcl-2, E1A or E1B 19K (the quantities of reporter plasmid pCMVL and the relevant test plasmid were 5 μg and 1 μg, respectively, as in the previous Example), with virus particle numbers of 3×10^4 (FIG. 5A), 10^4 (FIG. 5B) or 3×10^3 (FIG. 5C) per cell were applied to primary fibroblasts and the luciferase activity was measured over a period of time. The transfections were carried out as described in the preceding Examples, the cells being given 6, 18 or 60 μl of transfection complex per well, containing 2×10^4 fibroblasts.
(In these experiments, the cells in a well were given 18 μl of transfection complex.) From day 10 onwards, the culture medium was replaced with fresh medium daily; the idea of this procedure was to lower the concentrations of toxins by changing the medium.

In the case of `CCCCCCCCCCCCCC(=O)O[C@@H]1[C@@H](C)[C@@]2(O)[C@@H](C=C(CO)C[C@]3(O)C(=O)C(C)=C[C@@H]23)[C@@H]2C(C)(C)[C@]12OC(C)=O` [PMA, Phorbolmyristylacetate], the “Increase (-fold)” value in test [1] is listed as 2.0 (10 h) -fold; in test [2], 2.0 (11 h) -fold. Turning to `CCCCCCCCC#CCC#CCC#CCCCC(=O)O` [5,8,11-eicosatriynoic acid], in test [3], the “improvement in gene expression” value is given as “only dexamethasone brings about a substantial improvement”. In test [3] (presence of E1B 19K, dexamethasone 10 μM, 5,8,11-eicosatriynoic acid 30 μM), the “effect on gene expression” value is reported as “synergistic effect”. `C[C@@H]1C[C@H]2[C@@H]3CCC4=CC(=O)C=C[C@]4(C)[C@@]3(F)[C@@H](O)C[C@]2(C)[C@@]1(O)C(=O)CO` [Dexamethasone, dexamethasone]: the “Induction (-fold) of luciferase expression” value in test [3] (pCMVL/pCMV19K) is on record as 2.71 -fold; in test [3] (pCMVL/pSP65 (absence of pCMV19K)), 1.65 -fold. As for `CC(C)Cc1ccc(C(C)C(=O)O)cc1` (stereo not drawn) [ibuprofen, Ibuprofen], the “improvement in gene expression” value in test [3] is listed as “only dexamethasone brings about a substantial improvement”.

`CC(=O)Oc1ccccc1C(=O)O` [aspirin, acetylsalicylic acid]: the “effect on gene expression (luciferase) over time” value in test [3] (10 μM dexamethasone or 2 mM Aspirin from 2 hours after transfection, with and without E1B 19K) was “increase in gene expression both in the presence and in the absence of E1B 19K; also recorded: less marked than that of dexamethasone”. For the same molecule, the “interaction with the E1B 19K gene in increase of gene expression” value in test [3] (10 μM dexamethasone or 2 mM Aspirin, pCMV19K co-transfected) is given as “synergistic effect”.
